# Measurements reported in publication PMC8226574, “Action of Carvacrol on Parascaris sp. and Antagonistic Effect on Nicotinic Acetylcholine Receptors” (Pharmaceuticals, 2021).
# Entries after “also recorded” stand apart in the source; their conditions may differ. Like-named read-outs stand apart in the source and are kept apart here.
# Tests used:
# [1] = target: Parascaris sp. ACR-16 N-AChR (Parascaris equorum, UniProt A0A3S9VMQ8); experiment: Two-electrode voltage-clamp on Parascaris sp. ACR-16 N-AChR expressed in Xenopus oocytes; type: cell-based; conditions: for reduction of ACh maximal response amplitude: p < 0.05
# Protocol: (§1) Parascaris sp. ACR-26/27 M-AChR as well as Parascaris sp. and A. suum ACR-16 N-AChRs were expressed in Xenopus laevis oocytes as previously described. Briefly, Xenopus laevis defolliculated oocytes were obtained from Ecocyte Bioscience (Germany). Oocytes were micro-injected with 36 nL of cRNA mixes containing 50 ng/µL of each cRNA encoding subunits of interest and three H. contortus ancillary factors (Hco-RIC-3.1, Hco-UNC-50 and Hco-UNC-74). After 3–4 days of incubation, the oocytes were assayed under voltage clamp at −60 mV, and electrophysiological recordings were performed as described previously. The carvacrol concentration-dependent inhibition of acetylcholine current response was assessed for Parascaris- and Asu-ACR-16 channels with the protocol described by Zheng et al..
# (§2) The results of the contraction assay are expressed as means ± S.E. in grams (g) of tension. […] GraphPad Prism® Software (San Diego, CA, USA) was used to estimate the constants EC50 and nH by non-linear regression for each preparation. We determined the mean contraction responses to each concentration of acetylcholine. Whole cell current electrophysiology responses were analyzed using the pCLAMP 10.4 package (Molecular Devices). […] One-way analysis of variance (ANOVA) was applied for the comparison of the differences between the EC50 value and the maximal effect (Rmax). Differences were considered significant when the p value was < 0.05. The statistical analysis was conducted using GraphPad Prism® software (San Diego, CA, USA), while all values are expressed as mean ± standard error (S.E.).
# [2] = test system: Parascaris sp. muscle flap; experiment: Parascaris sp. body muscle flap isometric contraction assay
# Protocol: For the contraction assay, adult female Parascaris sp. worms were collected weekly from the slaughterhouse at Vrčin, Belgrade, Serbia. Worms were maintained in Locke’s solution, composition (mM): NaCl 155, KCl 5, CaCl2 2, NaHCO3 1.5 and glucose 5, at a temperature of 32 °C. The Locke’s solution was changed twice daily, and each batch of worms was used within 2 days of collection. Parascaris muscle flaps for the contractions were prepared by dissecting the anterior part of the worm, 3–4 cm caudal to the head (Figure 1b). Each flap (always the same length of 1 cm) was monitored isometrically by attaching a force transducer in an experimental bath maintained at 37 °C, containing 20 mL Ascaris Perienteric Fluid Ringer/APF Ringer (mM: NaCl, 23; Na-acetate, 110; KCl, 24; CaCl2, 6; MgCl2, 5; glucose, 11; HEPES, 5; pH 7.6) and bubbled with room air. After dissection, the preparations were allowed to equilibrate for 15 min under an initial tension of 1.5 g. […] Responses for each concentration were expressed in grams of tension (g), produced by each individual flap preparation. The effect of carvacrol (300 μM) on the acetylcholine dose–response plots was determined. Contractions were monitored on a PC using a BioSmart interface and eLAB software (ElUnit, Belgrade, Serbia). The system allows real-time recording, display and analysis of experimental data. Sigmoid dose–response curves for each individual flap preparation at each concentration of the antagonist were described by the Hill equation.
# as §2
# [3] = target: Parascaris sp. ACR-26/27 M-AChR (Parascaris equorum, UniProt A0A0U2ES47+A0A0U2ES58); experiment: Two-electrode voltage-clamp on Parascaris sp. ACR-26/27 M-AChR expressed in Xenopus laevis oocytes; type: cell-based
# Protocol: as §1, §2
# [4] = test system: A. suum innervated muscle strips; conditions: 300 µM of carvacrol; cited from earlier work
# A. suum ACR-16 N-AChR = target: T1, A. suum ACR-16 N-AChR (Ascaris suum, UniProt F1KYJ9); experiment: cell-based
# T1 construct: expressed in transfected cells; host or cells: Xenopus laevis oocytes (cRNA micro-injection)
# T1 sequence (F1KYJ9 1-504): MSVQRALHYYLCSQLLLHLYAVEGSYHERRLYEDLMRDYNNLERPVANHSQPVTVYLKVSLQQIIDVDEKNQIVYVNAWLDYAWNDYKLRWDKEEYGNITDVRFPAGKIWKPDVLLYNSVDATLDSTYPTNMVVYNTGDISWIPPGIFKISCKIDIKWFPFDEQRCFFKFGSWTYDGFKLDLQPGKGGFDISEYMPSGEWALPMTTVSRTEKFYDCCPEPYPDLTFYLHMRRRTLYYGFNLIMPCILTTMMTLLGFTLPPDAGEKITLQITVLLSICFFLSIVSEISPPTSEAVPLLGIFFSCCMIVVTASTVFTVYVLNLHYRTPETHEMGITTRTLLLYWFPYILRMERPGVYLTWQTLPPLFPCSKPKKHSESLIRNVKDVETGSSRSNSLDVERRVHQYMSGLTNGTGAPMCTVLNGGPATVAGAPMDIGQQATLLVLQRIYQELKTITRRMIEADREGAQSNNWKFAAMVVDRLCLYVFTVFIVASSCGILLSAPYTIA
# Protocol: as §1, §2
# Sequence of Parascaris sp. ACR-26/27 M-AChR (A0A0U2ES58 entry or part of it): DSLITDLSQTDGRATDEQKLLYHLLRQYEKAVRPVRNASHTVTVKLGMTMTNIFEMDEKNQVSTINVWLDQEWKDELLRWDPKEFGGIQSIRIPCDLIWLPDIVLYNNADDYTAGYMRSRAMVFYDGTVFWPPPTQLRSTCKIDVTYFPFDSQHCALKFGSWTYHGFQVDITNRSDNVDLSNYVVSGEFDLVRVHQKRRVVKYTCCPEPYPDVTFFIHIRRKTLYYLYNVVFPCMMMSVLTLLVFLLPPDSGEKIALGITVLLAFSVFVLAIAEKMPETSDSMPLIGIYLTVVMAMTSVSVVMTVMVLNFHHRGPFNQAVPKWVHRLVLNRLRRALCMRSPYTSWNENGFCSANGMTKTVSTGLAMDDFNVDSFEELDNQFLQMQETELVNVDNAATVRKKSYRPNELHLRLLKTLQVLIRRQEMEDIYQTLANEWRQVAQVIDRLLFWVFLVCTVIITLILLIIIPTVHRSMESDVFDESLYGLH
# Sequence of Parascaris sp. ACR-26/27 M-AChR (A0A0U2ES47 entry or part of it): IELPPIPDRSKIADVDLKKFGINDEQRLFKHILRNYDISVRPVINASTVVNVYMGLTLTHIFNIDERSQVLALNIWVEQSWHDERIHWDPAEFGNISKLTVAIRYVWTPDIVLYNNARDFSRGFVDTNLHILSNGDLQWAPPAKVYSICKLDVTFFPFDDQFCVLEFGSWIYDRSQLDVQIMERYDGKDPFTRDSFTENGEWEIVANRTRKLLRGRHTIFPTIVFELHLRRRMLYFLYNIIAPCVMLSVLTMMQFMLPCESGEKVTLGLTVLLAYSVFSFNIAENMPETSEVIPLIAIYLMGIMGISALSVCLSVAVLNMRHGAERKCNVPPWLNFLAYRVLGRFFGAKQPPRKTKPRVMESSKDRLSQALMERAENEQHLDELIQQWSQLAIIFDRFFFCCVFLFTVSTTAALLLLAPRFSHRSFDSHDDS
# Sequence of Parascaris sp. ACR-16 N-AChR (A0A3S9VMQ8 entry or part of it): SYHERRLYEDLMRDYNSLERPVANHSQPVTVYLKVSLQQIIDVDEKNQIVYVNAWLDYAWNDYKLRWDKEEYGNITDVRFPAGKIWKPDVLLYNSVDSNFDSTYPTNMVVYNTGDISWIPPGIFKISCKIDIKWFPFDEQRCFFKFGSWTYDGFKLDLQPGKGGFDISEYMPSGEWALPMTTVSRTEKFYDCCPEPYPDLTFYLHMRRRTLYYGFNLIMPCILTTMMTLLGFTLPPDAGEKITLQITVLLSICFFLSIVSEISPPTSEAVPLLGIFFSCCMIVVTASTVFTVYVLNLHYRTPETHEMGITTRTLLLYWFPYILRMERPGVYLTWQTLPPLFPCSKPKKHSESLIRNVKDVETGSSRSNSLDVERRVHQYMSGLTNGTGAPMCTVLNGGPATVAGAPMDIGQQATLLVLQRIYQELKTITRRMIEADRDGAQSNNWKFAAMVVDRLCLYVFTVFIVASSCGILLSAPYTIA
smiles,measurement,setting,value
"CC(=O)OCC[N+](C)(C)C [ACh, Acetylcholine chloride]",Hill coefficient of ACh concentration-response,[1]; 100 µM carvacrol,2.0 ± 0.3
same,Hill coefficient of ACh concentration-response,[1]; 300 µM carvacrol,2.1 ± 0.4
same,EC50,"[1]; ACh EC50, presence of 100 µM carvacrol, n = 6",5.9 µM
same,EC50,"[1]; ACh EC50, presence of 300 µM carvacrol, n = 10",8.2 µM
same,EC50,"[1]; ACh EC50, without carvacrol, n = 6",6.5 µM
same,EC50,"[1]; ACh log EC50, presence of 100 µM carvacrol, n = 6",5.92 µM
same,EC50,"[1]; ACh log EC50, presence of 300 µM carvacrol, n = 10",8.18 µM
same,Hill coefficient of ACh concentration-response,[1]; without carvacrol,2.0 ± 0.2
same,ACh log EC50,"[1]; without carvacrol, log of EC50 in µM, n = 6",0.811 ± 0.028
same,"maximal effect (Rmax), contraction",[2]; obtained with 100 µM ACh,1.19 ± 0.051 g
same,EC50,"[2]; read-out: EC50 of ACh, muscle flap contraction, control, no carvacrol, n = 5",6.08 µM
same,EC50,"[2]; read-out: log EC50 of ACh, muscle flap contraction (converted)",6.03 µM
same,EC50,"[3]; ACh EC50, absence of carvacrol, normalized to 100 µM ACh, n = 6",25 µM
same,EC50,"[3]; ACh EC50, continued perfusion of 100 µM carvacrol, n = 5",12.2 µM
same,EC50,"[3]; ACh EC50, continued perfusion of 300 µM carvacrol, n = 6",6.6 µM
same,EC50,"[3]; ACh log EC50, absence of carvacrol, log of EC50 in µM, n = 6",25 µM
same,EC50,"[3]; ACh log EC50, continued perfusion of 100 µM carvacrol, n = 5",12.2 µM
same,EC50,"[3]; ACh log EC50, continued perfusion of 300 µM carvacrol, n = 6",6.56 µM
same,Hill coefficient of ACh concentration-response,[3]; absence of carvacrol,1.4 ± 0.1
same,Hill coefficient of ACh concentration-response,[3]; presence of 100 µM carvacrol,1.7 ± 0.4
same,Hill coefficient of ACh concentration-response,[3]; presence of 300 µM carvacrol,1.5 ± 0.3
Cc1ccc(C(C)C)cc1O [carvacrol],inhibition of the ACh contractile effect,[4],≤ 49%
same,IC50,[1],177.8 ± 1.1 µM
same,mode of action,[1],non-competitive antagonist
same,agonist effect,[1]; 300 µM carvacrol,no agonist effect
same,reduction of ACh maximal response amplitude,[1]; presence of 100 µM carvacrol,2 fold
same,reduction of ACh maximal response amplitude,[1]; presence of 300 µM carvacrol,3 fold
same,inhibitory effect after removal of carvacrol from experimental baths (washing),[2]; 300 µM carvacrol,remained even after removal
same,effect on contractions induced by ACh,"[2]; 300 µM carvacrol, ACh 1 to 100 µM",completely abolished; also recorded: fully and irreversibly abolished; also recorded: full inhibition
same,mode of action,[3],non-competitive antagonist
same,agonist action,[3]; carvacrol perfused alone,no agonist action
same,effect on efficacy of ACh activation (Imax),"[3]; perfusion of 100 and 300 µM carvacrol, p < 0.0001",significantly reduced
same,IC50,"[3]; read-out: IC50, inhibition of ACh-elicited current",169.3 ± 1 µM
same,IC50,A. suum ACR-16 N-AChR,36.4 ± 1.3 µM
same,mode of action,A. suum ACR-16 N-AChR,non-competitive antagonist
same,higher affinity for the A. suum N-AChR over the Parascaris sp. N-AChR,A. suum ACR-16 N-AChR; from concentration-inhibition data,approximately 5 fold
